pIC50: −log10 of the molar value. Like-named read-outs stand apart in the source and are kept apart here. *1 amine or outer side, *2 acyl side, *3 side chain or, on linkers, in order; H or OH if unused. Where a SMILES comes first, the peptide text is derived from it. Bridges are numbered along the chain shown (N, C = ends). [ ]: non-standard residue; d: D form. The star is where a group is joined. hPhe(3-Cl-4-CF3) = N[C@@H](CCc1ccc(C(F)(F)F)c(Cl)c1)C(=O)O; X5 = CCCN([C@H](C(=O)[*:2])C1CCCC1)[*:1]; NMeGly(cPent) = CN[C@H](C(=O)O)C1CCCC1; NMeD = CN[C@@H](CC(=O)O)C(=O)O; NMeL = CN[C@@H](CC(C)C)C(=O)O; Morpholide = C1CN(*)CCO1; NMeA = CN[C@@H](C)C(=O)O; Ac5c = NC1(C(=O)O)CCCC1; Aze = O=C(O)[C@@H]1CCN1; Sar = CNCC(=O)O
What was measured:
[1] = molecular target: GDP-bound HRAS wild-type protein (Homo sapiens, UniProt P01112); test: Binding to HRAS by surface plasmon resonance (SPR), Single Cycle Kinetics; conditions: for HRAS/KRAS (ratio of KD value for HRAS to KD value for KRAS): GDP-bound HRAS wild-type vs GDP-bound KRAS wild-type
Chain of GDP-bound HRAS wild-type protein (P01112 whole entry): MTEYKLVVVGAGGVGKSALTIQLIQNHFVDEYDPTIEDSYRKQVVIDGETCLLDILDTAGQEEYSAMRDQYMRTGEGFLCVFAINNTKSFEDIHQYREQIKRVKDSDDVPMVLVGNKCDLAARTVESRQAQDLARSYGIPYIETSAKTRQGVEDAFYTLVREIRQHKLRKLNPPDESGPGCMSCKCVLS

[2] = molecular target: GDP-bound NRAS wild-type protein (Homo sapiens, UniProt P01111); test: Binding to NRAS by surface plasmon resonance (SPR), Single Cycle Kinetics; conditions: for NRAS/KRAS (ratio of KD value for NRAS to KD value for KRAS): GDP-bound NRAS wild-type vs GDP-bound KRAS wild-type
Chain of GDP-bound NRAS wild-type protein (P01111 whole entry): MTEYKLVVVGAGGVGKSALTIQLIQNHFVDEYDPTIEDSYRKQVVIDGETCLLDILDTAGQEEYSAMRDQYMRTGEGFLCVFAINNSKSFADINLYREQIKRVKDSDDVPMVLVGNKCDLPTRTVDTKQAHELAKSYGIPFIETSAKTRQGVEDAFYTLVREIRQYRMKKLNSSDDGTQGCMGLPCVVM

[3] = tested on: human lung cancer strain NCI-H441
[4] = read-out: NCI-H441 IC50, NCI-H441 cells, 4 days, CellTiter-Glo

Compound	HRAS/KRAS (ratio of KD value for HRAS to KD value for KRAS) ([1]; SPR)	NRAS/KRAS (ratio of KD value for NRAS to KD value for KRAS) ([2]; SPR)	pIC50 [3]	other results
CCC[C@H]1C(=O)N[C@@H]([C@@H](C)CC)C(=O)N(C)CC(=O)N(C)[C@H]2C/C=C\CCN(C2=O)[C@@H](Cc2ccc(C(F)(F)F)cc2)C(=O)N(C)CC(=O)N[C@@H](CCc2ccc(C(F)(F)F)c(OC)c2)C(=O)N2C[C@H](OCC)C[C@H]2C(=O)NC2(CC(C)(C)C2)C(=O)N(C)[C@@H](C2CCCC2)C(=O)N(C)[C@H](C(=O)N(C)CC)CC(=O)N1C [PP1676]	A (a compound having 10 or more and less than 20 is denoted as A)	A (a compound having 10 or more and less than 20 is denoted as A)	8.30	–
C#CC[C@H]1C(=O)N[C@@H]([C@@H](C)CC)C(=O)N(C)CC(=O)N(C)[C@H]2C/C=C\CCN(C2=O)[C@@H](Cc2ccc(C(F)(F)F)cc2)C(=O)N(C)CC(=O)N[C@@H](CCc2ccc(C(F)(F)F)c(OC)c2)C(=O)N2C[C@H](OCC)C[C@H]2C(=O)NC2(CC(C)(C)C2)C(=O)N(C)[C@@H](C2CCCC2)C(=O)N(C)[C@H](C(=O)N(C)C)CC(=O)N1C [PP1677]	A (a compound having 10 or more and less than 20 is denoted as A)	A (a compound having 10 or more and less than 20 is denoted as A)	8.47	–
CC[C@H](C)[C@@H]1NC(=O)[C@H](CC2CCCC2)N(C)C(=O)C[C@@H](C(=O)N(C)C)N(C)C(=O)[C@H](C2CCCC2)N(C)C(=O)C2(CCC2)NC(=O)[C@@H]2[C@@H](OCC(F)F)CCN2C(=O)[C@H](CCc2cc(F)c(C(F)(F)F)c(F)c2)NC(=O)CN(C)C(=O)[C@H](Cc2ccc(C)cc2)N2CC/C=C\C[C@H](C2=O)N(C)C(=O)CN(C)C1=O [PP1536]	–	–	7.61	HRAS/KRAS (ratio of KD value for GDP-bound HRAS wild-type protein to KD value for KRAS) ([1]; SPR, KD ratio class): B (a compound having 3 or more and less than 10 is denoted as B); NRAS/KRAS (ratio of KD value for GDP-bound NRAS wild-type protein to KD value for KRAS) ([2]; SPR, KD ratio class): A (a compound having 10 or more and less than 20 is denoted as A)
CC[C@H](C)[C@@H]1NC(=O)[C@H](CC)N(C)C(=O)C[C@@H](C(=O)N(C)CC)N(C)C(=O)[C@H](C2CCCC2)N(C)C(=O)C2(CC(C)(C)C2)NC(=O)[C@@H]2C[C@H](C)CN2C(=O)[C@H](CCc2ccc(C(F)(F)F)c(OC)c2)NC(=O)CN(C)C(=O)[C@H](Cc2ccc(C)cc2)N2CC/C=C\C[C@@H](C2=O)N(C)C(=O)CN(C)C1=O [PP1868]	B (a compound having 3 or more and less than 10 is denoted as B)	A (a compound having 10 or more and less than 20 is denoted as A)	7.97	–
CC[C@H](C)[C@@H]1NC(=O)[C@H](CC(C)C)N(C)C(=O)C[C@@H](C(=O)N(C)C)N(C)C(=O)[C@H](C2CCCC2)N(C)C(=O)C2(CCCC2)NC(=O)C2CCCN2C(=O)[C@H](CCc2ccc(C(F)(F)F)c(Cl)c2)NC(=O)CN(C)C(=O)[C@H](Cc2ccc(C(F)(F)F)cc2)N2CC/C=C\COC[C@@H](C2=O)N(C)C(=O)CN(C)C1=O (stereo partly drawn) [PP0622]	–	–	6.48	HRAS/KRAS (ratio of KD value with respect to GDP-bound HRAS wild-type protein to KD value with respect to KRAS) ([1]; KD ratio HRAS/KRAS, SPR): B (a compound having 3 or more and less than 10 is denoted as B); NRAS/KRAS (ratio of KD value with respect to GDP-bound NRAS wild-type protein to KD value with respect to KRAS) ([2]; KD ratio NRAS/KRAS, SPR): B (a compound having 3 or more and less than 10 is denoted as B)
CC[C@H](C)[C@@H]1NC(=O)[C@H](CC(C)C)N(C)C(=O)C[C@@H](C(=O)N(C)C)N(C)C(=O)[C@H](C2CCCC2)N(C)C(=O)C2(CC(C)(C)C2)NC(=O)[C@@H]2C[C@@H](C)CN2C(=O)[C@H](CCc2ccc(C(F)(F)F)c(OC)c2)NC(=O)CN(C)C(=O)[C@H](Cc2ccc(C)cc2)N2CC/C=C\C[C@@H](C2=O)N(C)C(=O)CN(C)C1=O [PP1908]	B (a compound having 3 or more and less than 10 is denoted as B)	A (a compound having 10 or more and less than 20 is denoted as A)	8.00	–
CCC[C@H]1C(=O)N[C@@H]([C@@H](C)CC)C(=O)N(C)CC(=O)N(C)[C@H]2C/C=C\CCN(C2=O)[C@@H](Cc2ccc(C(F)(F)F)cc2)C(=O)N(C)CC(=O)N[C@@H](CCc2cc(Cl)c3c(ccn3C)c2)C(=O)N2C[C@H](OCC)C[C@H]2C(=O)NC2(CC(C)(C)C2)C(=O)N(C)[C@@H](C(CC)CC)C(=O)N(C)[C@H](C(=O)N(C)C)CC(=O)N1C [PP2896]	–	–	–	HRAS/KRAS (ratio of KD value with respect to GDP-bound HRAS wild-type protein to KD value with respect to KRAS) ([1]; KD ratio HRAS/KRAS, class symbols): A (a compound having 10 or more and less than 20 is denoted as A); NRAS/KRAS (ratio of KD value with respect to GDP-bound NRAS wild-type protein to KD value with respect to KRAS) ([2]; KD ratio NRAS/KRAS, class symbols): A (a compound having 10 or more and less than 20 is denoted as A); pIC50 [3, 4]: 7.10
CCO[C@@H]1C[C@H]2C(=O)NC3(CC(C)(C)C3)C(=O)N(C)[C@@H](C3CCCC3)C(=O)N(C)[C@H](C(=O)N(C)CC)CC(=O)N(C)[C@@H](CC3CC3)C(=O)N[C@@H]([C@@H](C)CC)C(=O)N(C)CC(=O)N(C)[C@H]3C/C=C\CCN(C3=O)[C@@H](Cc3ccc(C(F)(F)F)cc3)C(=O)N(C)CC(=O)N[C@@H](CCc3ccc(C(F)(F)F)c(OC)c3)C(=O)N2C1 [PP1678]	B (a compound having 3 or more and less than 10 is denoted as B)	A (a compound having 10 or more and less than 20 is denoted as A)	8.25	–
CC[C@H](C)[C@@H]1NC(=O)[C@H](CC(C)C)N(C)C(=O)C[C@@H](C(=O)N(C)C)N(C)C(=O)[C@H](C2CCCC2)N(C)C(=O)C2(CC(C)(C)C2)NC(=O)[C@@H]2C[C@H](C)CN2C(=O)[C@H](CCc2ccc(C(F)(F)F)c(OC)c2)NC(=O)CN(C)C(=O)[C@H](Cc2ccc(C)cc2)N2CC/C=C\C[C@@H](C2=O)N(C)C(=O)CN(C)C1=O [PP1905]	A (a compound having 10 or more and less than 20 is denoted as A)	A (a compound having 10 or more and less than 20 is denoted as A)	8.17	–
CCCN1C(=O)[C@@H]2CCN2C(=O)[C@H](C)N(C)C(=O)[C@H]([C@@H](C)CC)NC(=O)[C@H](CC(C)C)N(C)C(=O)C[C@@H](C(=O)N2CCOCC2)N(C)C(=O)[C@H](C2CCCC2)N(C)C(=O)C2(CCCC2)NC(=O)[C@@H]2CCCN2C(=O)[C@H](CCc2ccc(C(F)(F)F)c(Cl)c2)NC(=O)CN(C)C(=O)[C@@H]1C1CCCC1 [PP0054] ([NMeL]I[NMeA][Aze][X5][Sar][hPhe(3-Cl-4-CF3)]P[Ac5c][NMeGly(cPent)][NMeD]-Morpholide; lactam N-11)	–	–	–	HRAS/KRAS (ratio of KD for GDP-bound HRAS wild-type to KD for KRAS) ([1]; KD ratio HRAS/KRAS, SPR): C (A compound having a KD ratio of 0.1 or more and less than 3 is denoted as C); NRAS/KRAS (ratio of KD for GDP-bound NRAS wild-type to KD for KRAS) ([2]; KD ratio NRAS/KRAS, SPR): C (A compound having a KD ratio of 0.1 or more and less than 3 is denoted as C); pIC50 [3, 4]: 7.09
